In patent US7208491B2, “N-monoacylated o-phenylenediamines” (Hoffmann-La Roche Inc., priority 2003, dated 2007):

Columns and labels:
[1] = system: histone deacetylase (HDAC); assay: cellular acetylation assay (acetylation of histones in PC3 cells, ELISA); format: cell-based; conditions: PC3 human prostate carcinoma cells; compound 1 μM; 24 h incubation; ELISA with antibodies against acetylated histone H3 or H4
Procedure: Therein acetylation of histones is monitored in PC3 cells. High acetylation correlates with inhibition of histone deacetylase by compounds. Cell viability is monitored in parallel to estimate the cytotoxicity of compounds.
PC3 cells, a human prostate carcinoma cell line, are seeded as 1800 cells per well of a 384-well microtiterplate in RPMI 1640 (including 5% FCS, 2 mM glutamine and pen/strep).
After 48 h at 37° C. pre-diluted compounds are added to a final concentration of 1 uM. Compounds are pre-diluted in dimethyl sulfoxide (DMSO) resulting in a final concentration of DMSO of 0.5% per well.
After 24 h incubation cell viability is determined by adding cell proliferation reagent WST-1 (Roche Molecular Biochemicals). Another 60 min later the optical density (OD) is measured (450 nm versus 690 nm).
After measurement the cell layer is prepared for the ELISA reaction. Medium is aspirated and cells are fixed in ethanol at −20° C. for 60 min. After washing with PBS/Tween the blocking solution (PBS/5% FCS/Tween) is added and the cell layer is washed again. Antibodies against acetylated histone H3 or H4 (rabbit polyklonal IgG, Upstate Biotechnologie) are added at a dilution of 1:200 for 60 min at 37° C. As a second antibody goat anti rabbit IgG (H+L) humanIgG adsorbed-HRP conjugate (Dako) is used (1:2000 diluted). Cells are washed 3 times and the peroxidase substrate ABTS is allowed to react for 30–60 min at 37° C. The OD is measured at 405 nm.
The percentage of acetylation is calculated after substraction of blank O.D.s: […]

Row | SMILES | cell acetylation (PC3, 1 μM) [% of control] [1] | melting point [°C]
1 | CC(=O)Nc1ccc(C(=O)Nc2ccccc2N)cc1 [4-acetylamino-N-(2-amino-phenyl)-benzamide, reference compound] | 152 % of control | –
2 | Nc1ccccc1NC(=O)c1cc2cc(OCCO)ccc2s1 [Example 16, 5-(2-Hydroxy-ethoxy)-benzo[b]thiophene-2-carboxylic acid (2-amino-phenyl)-amide] | 156 % of control | 215 to 216
3 | CC(C)N(CCOc1ccc2sc(C(=O)Nc3ccccc3N)cc2c1)C(C)C [Example 3, 5-(2-Diisopropylamino-ethoxy)-benzo[b]thiophene-2-carboxylic acid (2-amino-phenyl)-amide] | 172 % of control | –
4 | CN(C)CCCOc1ccc2sc(C(=O)Nc3ccccc3N)cc2c1 [Example 2, 5-(3-Dimethylamino-propoxy)-benzo[b]thiophene-2-carboxylic acid (2-amino-phenyl)-amide] | 209 % of control | –
5 | Nc1ccccc1NC(=O)c1cc2cc(CCO)ccc2o1 [Example 24, 5-(2-Hydroxy-ethyl)-benzofuran-2-carboxylic acid (2-amino-phenyl)-amide] | 157 % of control | –
